Patent publication US8124381B2, “Process and materials for production of glucosamine and N-acetylglucosamine” (Arkion Life Sciences, priority 2002, dated 2012)
Residue numbers refer to the chain shown, from its start. In names and notes the source's numbering stands. Entries after “also recorded” stand apart in the source; their conditions may differ.

Key:
[1] = Stability of NAG in fermentation at 37 C and pH 7.0; format: physicochemical; conditions: after cessation of glucose feed at 37 C and pH 7.0
Text: The use of lower temperature and pH were key factors in stabilizing the GLcN fermentation, primarily due to the labile nature of GLcN at higher pH and temperature. However, it was shown that NAG was stable at neutral pH. Fermentation for NAG production was operated in the pH range of 6.7 to 7.0 throughout the program.

E. coli 7107-18 = assay: Effects of N-acetyl glucosamine on E. coli 7107-18; format: cell-based; conditions: 62 g/L N-acetyl glucosamine in M9A-glucose (40 g/L), also medium pre-incubated more than eight hours
Text: Cells were inoculated into […]-glucose (40 g/L) containing 62 g/L N-acetyl glucosamine.

[2] = Stability of N-acetylglucosamine in M9A medium
Protocol: The stability of N-acetylglucosamine was tested in an experiment similar to the glucosamine degradation studies. The stability of 80 and 40 g l^−1 N-acetyl glucosamine at pH 5.5 and 7.0 was monitored in medium M9A-without glucose over a period of two days.

[3] = Heat stability of purified solid N-acetylglucosamine at 105 C; format: physicochemical; conditions: 98% pure sample, 2 hours at 105 C
[4] = Solubility of N-acetylglucosamine in water miscible solvents; format: physicochemical; conditions: IPA, ethanol, methanol, acetone, tetrahydrofuran, dimethylsulfoxide, dimethylformamide, dioxane, acetonitrile
Text: Recovering N-acetylglucosamine-containing solids from the fermentation broth can be enhanced by contacting N-acetylglucosamine in the broth with a water miscible solvent. […] Therefore, by introduction of such a water miscible solvent into the broth, the N-acetylglucosamine will become less soluble and will further recovery.

[5] = Degradation in hydrochloric acid at 90-100 C based on ammonia formation; format: physicochemical; conditions: 30% hydrochloric acid, 90 C, 3 hours
Protocol: Glucosamine degradation was examined at 90° C. and 100° C. using 5% and 10% glucosamine hydrochloride (w/w) with 12% and 20% hydrochloric acid by weight. Samples were incubated from 1-24 hours and assayed enzymatically for ammonia using glutamate dehydrogenase. […] Glucosamine degradation is based on ammonia formation.
N-acetylglucosamine was hydrolyzed to glucosamine at 90° C. using the hybridization oven. The reaction was carried out inside a screw capped glass tube. The 30% hydrochloric acid (30 g) was preincubated at 90° C. for 1 hour. After this 10 g solid N-acetylglucosamine was added, quickly dissolved, and a To sample taken. Samples were taken at 30-minute intervals over the next three hours. […] Samples were analyzed for ammonia enzymatically.

[6] = biological target: glucosamine N-acetyltransferase (Saccharomyces cerevisiae, UniProt P43577); assay: Product inhibition of glucosamine N-acetyltransferase; format: biochemical
[7] = biological target: phosphoglucoisomerase (Pgi) (Escherichia coli, UniProt P0A6T1); assay: Effect of phosphorylated amino sugars on phosphoglucoisomerase activity; format: biochemical; conditions: in vitro, FIG. 15
Text: Therefore, effects of glucosamine-6-P and N-acetylglucosamine-6-P on several of the enzymes were examined.

[8] = biological target: glucose-6-P dehydrogenase (zwf) (Escherichia coli, UniProt P0AC53, A9V); assay: Effect of phosphorylated amino sugars on glucose-6-P dehydrogenase; format: biochemical; conditions: in vitro, FIG. 16
[9] = biological target: T1, E. coli glucosamine synthase GlmS*54 (Escherichia coli, UniProt P17169, A39T/G472S/R250C); assay: Effects of phosphorylated sugars on glucosamine synthase; format: biochemical
T1 construct: made in house; host or cells: E. coli 7107-18 (printed '7017-18'; T7-glmS*54 integrated at galK) and strains derived from it; crude extract
Protocol: Glucosamine synthetase activity was examined in the presence of various phosphorylated sugars. Crude enzyme extracts was prepared from cells of 7017-18 grown in shake flasks for 24 hours with lactose induction.

[10] = test system: glucosamine synthetase (GlmS); assay: Thermal stability of GlmS enzymes (denaturation at 50 C); format: biochemical, E. coli; conditions: crude extracts incubated at 50 C, sampled over 90 minutes, assayed at 25 C
Protocol: Denaturation at 50° C. was used to measure possible differences in thermal stability of different GlmS enzymes. Crude extracts were incubated at 50° C. and sampled over a 90-minute period. The samples were assayed for glucosamine synthetase activity at 25° C. with saturating levels of all substrates.

[11] = substrate: O=P(O)(O)OC[C@H]1OC(O)(CO)[C@@H](O)[C@@H]1O; assay: purified protein, by the assay type
[12] = substrate: NC(=O)CC[C@H](N)C(=O)O; assay: GlmS (glucosamine synthase) inhibition and Michaelis-Menten kinetics, crude extract of strain 2123-12; format: biochemical, Escherichia coli; conditions: other: crude extracts, nonlinear regression
Protocol: (§1) Different glucosamine synthetase enzymes, including native B. subtillus GlmS, native E. coli GlmS and mutant E. coli GlmS, were studied in vitro. Cells of various E. coli strains were grown in the M9A medium, harvested, and frozen. Cells extracts were prepared and the glucosamine synthetases were characterized and compared.
(§2) Enzyme sensitivities to the reaction product glucosamine-6-P were examined. […] This figure highlights the dramatic difference between the wild type GlmS and these mutant GlmS strains.
(§3) The Mutants 2123-54 and the B. subtilis enzyme have higher Ki values (Table 6). Measured Ki constants for several of these mutants are 4 to 8 times the value for the native enzyme in strain 2123-12. From shake flask studies it is apparent that decreased sensitivity to glucosamine-6-P allows higher glucosamine levels to accumulate.
(§4) These values are slightly higher than those obtained with the native enzyme.

[13] = substrate: O=P(O)(O)OC[C@H]1OC(O)(CO)[C@@H](O)[C@@H]1O; assay: as above; format: biochemical, Escherichia coli; conditions: other: crude extracts, nonlinear regression
Protocol: as §1, §2, §3, §4

[14] = substrate: NC(=O)CC[C@H](N)C(=O)O; assay: GlmS inhibition and Michaelis-Menten kinetics, crude extract of strain 2123-54; format: biochemical, Escherichia coli; conditions: other: crude extracts
Protocol: as §1, §2, §3, §4

[15] = substrate: O=P(O)(O)OC[C@H]1OC(O)(CO)[C@@H](O)[C@@H]1O; assay: as above; format: biochemical, Escherichia coli; conditions: other: crude extracts
Protocol: as §1, §2, §3, §4

[16] = test system: glucosamine synthetase (GlmS); assay: Sensitivity of GlmS enzymes to inhibition by glucosamine-6-P (initial velocity, Ki); format: biochemical, E. coli; B. subtilis; conditions: 0-30 mM glucosamine-6-P
Protocol: as §1
Enzyme sensitivities to the reaction product glucosamine-6-P were examined.

[17] = test system: glucosamine synthetase (GlmS); format: biochemical, E. coli; B. subtilis; conditions: crude extracts

Sequence of phosphoglucoisomerase (Pgi) (P0A6T1 whole entry): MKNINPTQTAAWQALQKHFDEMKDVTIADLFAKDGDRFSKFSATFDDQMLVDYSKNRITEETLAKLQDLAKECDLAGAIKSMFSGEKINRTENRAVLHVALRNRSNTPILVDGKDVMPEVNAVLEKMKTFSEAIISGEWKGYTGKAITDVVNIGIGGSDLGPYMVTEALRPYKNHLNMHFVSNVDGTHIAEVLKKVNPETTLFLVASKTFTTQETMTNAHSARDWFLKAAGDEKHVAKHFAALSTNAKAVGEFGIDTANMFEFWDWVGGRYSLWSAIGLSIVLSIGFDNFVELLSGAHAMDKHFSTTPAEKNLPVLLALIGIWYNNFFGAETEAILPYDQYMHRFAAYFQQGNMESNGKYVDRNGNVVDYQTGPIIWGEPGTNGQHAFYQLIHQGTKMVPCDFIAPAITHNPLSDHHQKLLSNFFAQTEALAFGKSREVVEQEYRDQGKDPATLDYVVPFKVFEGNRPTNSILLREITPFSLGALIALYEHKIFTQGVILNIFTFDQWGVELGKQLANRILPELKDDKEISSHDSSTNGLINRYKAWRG
T1 sequence (P17169 2-609 A39T/R250C/G472S): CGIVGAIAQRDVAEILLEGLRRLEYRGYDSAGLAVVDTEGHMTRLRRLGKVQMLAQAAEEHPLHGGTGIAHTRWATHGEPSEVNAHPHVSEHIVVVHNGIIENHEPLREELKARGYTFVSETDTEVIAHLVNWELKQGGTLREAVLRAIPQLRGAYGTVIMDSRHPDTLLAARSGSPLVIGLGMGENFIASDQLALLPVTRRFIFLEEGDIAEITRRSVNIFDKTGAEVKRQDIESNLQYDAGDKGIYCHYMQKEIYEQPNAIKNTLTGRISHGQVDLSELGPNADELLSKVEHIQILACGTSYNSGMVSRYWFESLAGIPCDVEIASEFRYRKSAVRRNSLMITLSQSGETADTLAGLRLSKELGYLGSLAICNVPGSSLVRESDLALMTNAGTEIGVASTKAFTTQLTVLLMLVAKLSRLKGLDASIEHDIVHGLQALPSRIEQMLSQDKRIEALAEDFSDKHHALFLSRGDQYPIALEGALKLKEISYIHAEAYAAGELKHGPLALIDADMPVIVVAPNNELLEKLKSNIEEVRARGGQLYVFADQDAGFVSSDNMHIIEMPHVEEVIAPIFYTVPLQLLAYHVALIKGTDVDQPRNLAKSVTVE
Sequence of glucosamine N-acetyltransferase (P43577 whole entry): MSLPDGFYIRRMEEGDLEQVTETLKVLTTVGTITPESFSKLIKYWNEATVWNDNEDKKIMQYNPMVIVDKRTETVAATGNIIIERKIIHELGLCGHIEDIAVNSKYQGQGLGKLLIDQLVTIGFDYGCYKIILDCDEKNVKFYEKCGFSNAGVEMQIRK
Sequence of glucose-6-P dehydrogenase (zwf) (P0AC53 whole entry A9V): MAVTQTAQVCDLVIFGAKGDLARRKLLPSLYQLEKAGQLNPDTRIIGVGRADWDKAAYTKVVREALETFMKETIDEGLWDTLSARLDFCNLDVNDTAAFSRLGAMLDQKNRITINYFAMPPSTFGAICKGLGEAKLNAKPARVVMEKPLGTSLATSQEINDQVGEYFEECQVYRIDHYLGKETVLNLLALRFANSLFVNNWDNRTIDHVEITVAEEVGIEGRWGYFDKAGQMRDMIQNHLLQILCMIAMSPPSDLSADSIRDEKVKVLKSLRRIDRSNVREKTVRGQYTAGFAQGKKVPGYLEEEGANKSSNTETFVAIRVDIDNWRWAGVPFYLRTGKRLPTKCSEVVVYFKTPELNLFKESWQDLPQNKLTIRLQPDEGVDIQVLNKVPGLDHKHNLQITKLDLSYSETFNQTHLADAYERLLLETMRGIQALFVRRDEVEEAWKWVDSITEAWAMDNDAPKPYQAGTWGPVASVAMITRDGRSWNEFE

Molecule: CC(=O)N[C@@H](C=O)[C@@H](O)[C@H](O)[C@H](O)CO [N-acetylglucosamine, 2-acetamido-2-deoxy-D-glucose]
- time NAG was stable [1]: at least 50 hours
- growth inhibition (E. coli 7107-18): No significant growth inhibition
- drop in pH during incubation [2]: no significant drop in pH
- degradation of N-acetyl glucosamine ([2]; 80 and 40 g l-1, pH 5.5 and 7.0, M9A without glucose, two days): No significant degradation
- amber color formation ([2]; M9A medium, 48 hours): No such color formation
- color change on heating [3]: turned light brown
- weight loss on heating [3]: 4.7%
- solubility in water miscible solvents [4]: very insoluble
- degradation based on ammonia levels [5]: around 3.5%

Molecule: CC(=O)N[C@H]1C(O)O[C@H](COP(=O)(O)O)[C@@H](O)[C@@H]1O (stereo partly shown) [N-acetylglucosamine-6-P, N-acetylglucosamine-6-phosphate]
- product inhibition of glucosamine N-acetyltransferase [6]: did not show any significant product inhibition
- inhibition of phosphoglucoisomerase (Pgi) [7]: significantly less so; also recorded: does not significantly inhibit
- inhibition of glucose-6-P dehydrogenase (zwf) [8]: does not significantly inhibit
- activity at 10000 µM [9]: 100%
- activity at 20000 µM [9]: 100%

B1: WT E. coli GlmS: wild-type E. coli glucosamine-6-phosphate synthase (SEQ ID NO:2), expressed in strain 2123-12 (protein, listed as Escherichia coli)
chain: MCGIVGAIAQRDVAEILLEGLRRLEYRGYDSAGLAVVDAEGHMTRLRRLGKVQMLAQAAEEHPLHGGTGIAHTRWATHGEPSEVNAHPHVSEHIVVVHNGIIENHEPLREELKARGYTFVSETDTEVIAHLVNWELKQGGTLREAVLRAIPQLRGAYGTVIMDSRHPDTLLAARSGSPLVIGLGMGENFIASDQLALLPVTRRFIFLEEGDIAEITRRSVNIFDKTGAEVKRQDIESNLQYDAGDKGIYRHYMQKEIYEQPNAIKNTLTGRISHGQVDLSELGPNADELLSKVEHIQILACGTSYNSGMVSRYWFESLAGIPCDVEIASEFRYRKSAVRRNSLMITLSQSGETADTLAGLRLSKELGYLGSLAICNVPGSSLVRESDLALMTNAGTEIGVASTKAFTTQLTVLLMLVAKLSRLKGLDASIEHDIVHGLQALPSRIEQMLSQDKRIEALAEDFSDKHHALFLGRGDQYPIALEGALKLKEISYIHAEAYAAGELKHGPLALIDADMPVIVVAPNNELLEKLKSNIEEVRARGGQLYVFADQDAGFVSSDNMHIIEMPHVEEVIAPIFYTVPLQLLAYHVALIKGTDVDQPRNLAKSVTVE
- thermal stability at 50 C [10]: little significant difference in thermal stability

B2: Bacillus subtilis GlmS, wild type, SEQ ID NO:16 (Bacillus subtilis subsp. subtilis str. 168) (protein)
chain: CGIVGYIGQLDAKEILLKGLEKLEYRGYDSAGIAVANEQGIHVFKEKGRIADLREVVDANVEAKAGIGHTRWATHGEPSYLNAHPHQSALGRFTLVHNGVIENYVQLKQEYLQDVELKSDTDTEVVVQVIEQFVNGGLETEEAFRKTLTLLKGSYAIALFDNDNRETIFVAKNKSPLLVGLGDTFNVVASDAMAMLQVTNEYVELMDKEMVIVTDDQVVIKNLDGDVITRASYIAELDASDIEKGTYPHYMLKETDEQPVVMRKIIQTYQDENGKLSVPGDIAAAVAEADRIYIIGCGTSYHAGLVGKQYIEMWANVPVEVHVASEFSYNMPLLSKKPLFIFLSQSGETADSRAVLVQVKALGHKALTITNVPGSTLSREADYTLLLHAGPEIAVASTKAYTAQIAVLAVLASVAADKNGINIGFDLVKELGIAANAMEALCDQKDEMEMIAREYLTVSRNAFFIGRGLDYFVCVEGALKLKEISYIQAEGFAGGELKHGTIALIEQGTPVFALATQEHVNLSIRGNVKEVAARGANTCIISLKGLDDADDRFVLPEVNPALAPLVSVVPLQLIAYYAALHRGCDVDKPRNLAKSVTVE
- Km [11]: 0.62 mM

B3: E. coli GlmS (glucosamine-6-phosphate synthase), wild type, SEQ ID NO:2 (strain 2123-12) (Escherichia coli K-12) (protein)
chain: CGIVGAIAQRDVAEILLEGLRRLEYRGYDSAGLAVVDAEGHMTRLRRLGKVQMLAQAAEEHPLHGGTGIAHTRWATHGEPSEVNAHPHVSEHIVVVHNGIIENHEPLREELKARGYTFVSETDTEVIAHLVNWELKQGGTLREAVLRAIPQLRGAYGTVIMDSRHPDTLLAARSGSPLVIGLGMGENFIASDQLALLPVTRRFIFLEEGDIAEITRRSVNIFDKTGAEVKRQDIESNLQYDAGDKGIYRHYMQKEIYEQPNAIKNTLTGRISHGQVDLSELGPNADELLSKVEHIQILACGTSYNSGMVSRYWFESLAGIPCDVEIASEFRYRKSAVRRNSLMITLSQSGETADTLAGLRLSKELGYLGSLAICNVPGSSLVRESDLALMTNAGTEIGVASTKAFTTQLTVLLMLVAKLSRLKGLDASIEHDIVHGLQALPSRIEQMLSQDKRIEALAEDFSDKHHALFLGRGDQYPIALEGALKLKEISYIHAEAYAAGELKHGPLALIDADMPVIVVAPNNELLEKLKSNIEEVRARGGQLYVFADQDAGFVSSDNMHIIEMPHVEEVIAPIFYTVPLQLLAYHVALIKGTDVDQPRNLAKSVTVE
notes: made in house; host or cells: E. coli strain 2123-12 (T7-glmS integrated in the chromosome), crude cell extract
- Km [12]: 0.17 mM
- Km [13]: 0.20 mM

B4: E. coli GlmS mutant GlmS*54, SEQ ID NO:6 (Ala39Thr, Arg250Cys, Gly472Ser) (strain 2123-54) (Escherichia coli K-12; A39T/G472S/R250C) (protein)
chain: B3 chain with A38T, R249C, G471S
notes: made in house; host or cells: E. coli strain 2123-54 (lacZ::T7-glmS*54), crude cell extract
- Km [14]: 0.73 mM
- Km [15]: 0.64 mM

B5: Wild type Bacillus GlmS: wild-type Bacillus subtilis glucosamine-6-phosphate synthase (SEQ ID NO:16), expressed in E. coli strain 7107-24 (protein, listed as Bacillus subtilis)
chain: MCGIVGYIGQLDAKEILLKGLEKLEYRGYDSAGIAVANEQGIHVFKEKGRIADLREVVDANVEAKAGIGHTRWATHGEPSYLNAHPHQSALGRFTLVHNGVIENYVQLKQEYLQDVELKSDTDTEVVVQVIEQFVNGGLETEEAFRKTLTLLKGSYAIALFDNDNRETIFVAKNKSPLLVGLGDTFNVVASDAMAMLQVTNEYVELMDKEMVIVTDDQVVIKNLDGDVITRASYIAELDASDIEKGTYPHYMLKETDEQPVVMRKIIQTYQDENGKLSVPGDIAAAVAEADRIYIIGCGTSYHAGLVGKQYIEMWANVPVEVHVASEFSYNMPLLSKKPLFIFLSQSGETADSRAVLVQVKALGHKALTITNVPGSTLSREADYTLLLHAGPEIAVASTKAYTAQIAVLAVLASVAADKNGINIGFDLVKELGIAANAMEALCDQKDEMEMIAREYLTVSRNAFFIGRGLDYFVCVEGALKLKEISYIQAEGFAGGELKHGTIALIEQGTPVFALATQEHVNLSIRGNVKEVAARGANTCIISLKGLDDADDRFVLPEVNPALAPLVSVVPLQLIAYYAALHRGCDVDKPRNLAKSVTVE
- sensitivity to GlcN-6-P inhibition / product resistance (in words) [16]: product resistance very comparable to the E. coli mutant GlmS enzymes
- Km (fructose-6-P) [17]: very similar to the mutant E. coli enzyme GlmS*54
